Laboratory results: patent publication US20120213766A1, “Anticancer Compounds from Vernonia Guineensis” (priority 2011, published 2012)

Experiments:
[1] = test system: Breast cancer cell line MCF-7; assay: Cell proliferation assay (WST-1, 72 h); type: cell-based; conditions: Homo sapiens, MCF7, Breast MCF-7, average of two runs
Method: (§1) Breast cancer cells lines MDA-MD-231 and MCF-7, colon cancer cell line HCT-116, Leukaemia cell line HL-60, lung cancer cell line A549, melanoma cancer cell line A375, ovarian cancer cell line OVCAR3 and prostate cancer cell line PC-3 were treated with Compound A (Kuminol) and Compound B (Vernoginin) to determine the effects of the molecules on the proliferation of each cell line.
(§2) Established protocol was used to assay the anti-proliferation effects of these compounds against selected cancer cell lines. Each cell line is grown in RPMI/10% FBS/1% glutamine. On the day the experiment is initiated, cells are trypsinized and plated into 96 well plates in 50 ul of media. Compound is added approximately 18 hours after plating. Cells are plated at a density so that 72 hours post drug addition, the cells are in log phase (500-2000 cells/well). The compounds are solubilized in DMSO at a concentration of 100 mM, aliquoted and stored at −20^C. On the day of drug addition, the compounds are removed from the freezer and serially diluted in DMSO to concentrations as low as 100 nM. The compounds are then diluted 1:1000 into growth media (this is 2× the final concentration) including a DMSO alone control. 50 ul of media/compound is added to each well. The cells are allowed to proliferate for 72 hours. The experiment is terminated using WST-1 (Roche) and absorbance is read at 450 nm/690 nm IC50s are calculated in GraphPad Prism converting all values to percentage of control cell growth. Each cell line is run in duplicate and the average of the two runs is the calculated IC50 of each compound.

[2] = test system: Breast cancer cell line MDA-MB-231; assay: Cell proliferation assay (WST-1, 72 h); type: cell-based; conditions: Homo sapiens, Breast MDA-MB-231, average of two runs
Method: as §1, §2

[3] = test system: Leukaemia cell line HL-60; assay: Cell proliferation assay (WST-1, 72 h); type: cell-based; conditions: Homo sapiens, Leukaemia HL-60, average of two runs
Method: as §1, §2

[4] = test system: colon cancer cell line HCT-116; assay: Cell proliferation assay (WST-1, 72 h); type: cell-based; conditions: Homo sapiens, Colon HCT-116, average of two runs
Method: as §1, §2

[5] = test system: lung cancer cell line A549; assay: Cell proliferation assay (WST-1, 72 h); type: cell-based; conditions: Homo sapiens, average of two runs
Method: as §1, §2

[6] = test system: melanoma cancer cell line A375; assay: Cell proliferation assay (WST-1, 72 h); type: cell-based; conditions: A-375, Human melanoma A375, average of two runs
Method: as §1, §2

[7] = test system: ovarian cancer cell line OVCAR3; assay: Cell proliferation assay (WST-1, 72 h); type: cell-based; conditions: Homo sapiens, OVCAR-3, average of two runs
Method: as §1, §2

[8] = test system: prostate cancer, human melanoma, breast cancer and others; assay: Anticancer screen, in vitro cell proliferation assay (MTT); type: cell-based
Excerpt: The extracts obtained as described above were fractionated by absorbing onto celite and then extracting with increasing polarities of ethyl acetate in hexane. Each fraction obtained was evaporated in-vacuo to remove the solvent and monitored by thin layer chromatography (TLC). […] The dried residue of each fraction was used in the anticancer assay to determine effect on cell proliferation. The active fraction was subjected to dry column chromatography (DCC) using normal phase silica gel activated for visualization with UV 254. This procedure led to the isolation of compounds of Formula I in pure form. The Compound A (Kuminol) and the other fractions obtained were further subjected to anticancer activity screening.
Further purification of second active fraction by use of Waters Sep Pak flash chromatography yielded compounds of the Formula II. Compound B (Vernoginin) inhibited prostate cancer, human melanoma, breast cancer and others in the in vitro cell proliferation assay.
The anticancer screen is based on the highly sensitive 3-(4,5-dimethylthiazol-2-yl)-2, S-diphenyl tetrazolium bromide (MTT) assay. […]
The anticancer activity of the extract obtained as described above was confirmed using the highly proliferative B16 cell line. […] Each of the fractions obtained was evaporated in-vacuo to remove the solvent and monitored by thin layer chromatography (TLC). […]

[9] = test system: human leukaemia cell line HL-60; assay: Apoptosis determination (Annexin V and propidium iodide, flow cytometry); type: cell-based; conditions: 1x, 10x and 50x IC50, 0-24 h
Method: The apoptotic effects of Kuminol (Compound A) and Vernoginin (Compound B) against the human leukaemia cell line HL-60 was determined. Annexin V and Propidium Iodide assay were carried out to determine whether Kuminol and Vernoginin have effect on cell cycle and induction of apoptosis in cancer cells. Cell death can result from either necrosis or apoptosis (programmed cell death).
The human leukaemia cell line HL60 were plated in RPMI1640 at 4×10^6 (2×10^5 cells/ml) and treated with 1×IC50, 10×IC50 and 50×IC50 Kuminol and Vernoginin. For cell cycle, 2 ml of the treated cells were stained with propidium iodide as per the manufactures instruction, aliquots (2 ml) of cells were removed and fixed at 3, 6, 24, 48 and 72 hours. For apoptosis, 2 ml aliquots of cells were removed at 0, 3, 6 and 24 hours and were stained with Annexin V FITC as per the manufacturer's instructions. The presence of apoptosis and cell cycle changes were detected using a Cytomics 500 Beckman Coulter Flow Cytometer (Coulter, Inc. Hialeah, Fla., USA

[10] = test system: prostate cancer cell line PC-3; assay: Cell proliferation assay (WST-1, 72 h); type: cell-based; conditions: Prostate PC-3, average of two runs
Method: as §1, §2

B16 tumors = assay: In vivo antitumor activity; conditions: B16 tumors in C57 mice; FIG. 5

IC50 [1] [µM] | IC50 [2] [µM] | IC50 [3] [µM] | IC50 [4] [µM] | IC50 [5] [µM] | IC50 [6] [µM] | IC50 [7] [µM] | IC50 [10] [µM] | SMILES | growth inhibition in anticancer assay (in words) [8] | induction of apoptosis (in words) [9] | suppression of tumors (in words) (B16 tumors)
1.56 ± 0.96 | 0.367 ± 0.03 | 1.12 ± 0.75 | 0.14 ± 0.15 | 1.13 ± 0.38 | 0.13 ± 0.15 | 0.48 ± 0.008 |  | C=CC(C)(CC(O)C(O)C(=C)C=O)C(O)C(C(=C)C(C)=O)C(=C)C(=O)CCO (centres unmarked) [Vernoginin, 3,4,7,12,-Tetrahydroxy-6-methyl-2,9-dimethylene-8-(1-methylene-2-oxo-propyl)-10-oxo-6-vinyl-dodecanal] | inhibited | induce apoptosis | 
0.67 ± 0.32 | 1.01 ± 0.2 | 1.55 ± 0.47 | 0.45 ± 0.007 | 2.04 ± 1.04 | 0.35 ± 0.04 | 0.74 ± 0.31 | 1 ± 0.26 | C=C1COC(O)/C(C(O/C=C(\C)C=O)C(=C)C(=O)O)=C\CCCC(O)C1=O (centres unmarked) [Kuminol, 2-[(2,8-Dihydroxy-10-methylene-9-oxo-oxacycloundec-3-en-3-yl)-(2-methyl-3-oxo-propenyloxy)-methyl]-acrylic acid] | exhibited growth inhibition | induce apoptosis | suppression effects
